Assay results published in PubChem BioAssay AID330 (DTP/NCI, 2004).
Values joined by “and” are separate entries in the source; they are usually repeats but may differ in a detail not shown here. Identical values can stand only once. Toxic doses and inconclusive results are not listed.

Tested on: P388 leukemia ip, CD2F1 mice, survival T/C
Test: NCI In Vivo Anticancer Drug Screen. Data for tumor model P388 Leukemia (intraperitoneal) in CD2F1 (CDF1) mice
Settings: endpoint: median survival time, higher = longer survival
How it was run: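 Mice carrying the transplanted tumor received test compound or vehicle. Survival was recorded in each group, and the value is the treated-group measurement divided by that of the vehicle-treated control group.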

[1] = dose: 50.0 mg/kg/injection, schedule: Q01DX005 (ip), vehicle: saline with Tween-80
[2] = dose: 100.0 mg/kg/injection, schedule: Q01DX005 (ip), vehicle: saline with Tween-80
[3] = dose: 200.0 mg/kg/injection, schedule: Q01DX005 (ip), vehicle: saline with Tween-80
[4] = dose: 50.0 mg/kg/injection, schedule: Q01DX009 (ip), vehicle: saline with Tween-80
[5] = dose: 100.0 mg/kg/injection, schedule: Q01DX009 (ip), vehicle: saline with Tween-80
[6] = dose: 200.0 mg/kg/injection, schedule: Q01DX009 (ip), vehicle: saline with Tween-80
[7] = dose: 25.0 mg/kg/injection, schedule: Q01DX005 (ip), vehicle: saline
[8] = dose: 100.0 mg/kg/injection, schedule: Q01DX005 (ip), vehicle: saline
[9] = dose: 6.25 mg/kg/injection, schedule: Q01DX005 (ip), vehicle: Klucel (hydroxypropylcellulose) (HPC)
[10] = dose: 12.5 mg/kg/injection, schedule: Q01DX005 (ip), vehicle: Klucel (hydroxypropylcellulose) (HPC)
[11] = dose: 25.0 mg/kg/injection, schedule: Q01DX005 (ip), vehicle: Klucel (hydroxypropylcellulose) (HPC)
[12] = dose: 50.0 mg/kg/injection, schedule: Q01DX005 (ip), vehicle: Klucel (hydroxypropylcellulose) (HPC)
[13] = dose: 100.0 mg/kg/injection, schedule: Q01DX005 (ip), vehicle: Klucel (hydroxypropylcellulose) (HPC)
[14] = dose: 200.0 mg/kg/injection, schedule: Q01DX005 (ip), vehicle: Klucel (hydroxypropylcellulose) (HPC)
[15] = dose: 50.0 mg/kg/injection, schedule: Q01DX009 (ip), vehicle: Klucel (hydroxypropylcellulose) (HPC)
[16] = dose: 200.0 mg/kg/injection, schedule: Q01DX009 (ip), vehicle: Klucel (hydroxypropylcellulose) (HPC)
[17] = dose: 50.0 mg/kg/injection, schedule: Q01DX005 (ip), vehicle: saline

## COc1ccc(/C=N\N=C(/[O-])c2ccccc2O)cc1.COc1ccc(/C=N\N=C(/[O-])c2ccccc2O)cc1.[Co+2]
dose: 50.0 mg/kg/injection, schedule: Q04DX002 (ip), vehicle: saline with Tween-80
  T/C: 93 % of control
dose: 100.0 mg/kg/injection, schedule: Q04DX002 (ip), vehicle: saline with Tween-80
  T/C: 98 % of control
dose: 200.0 mg/kg/injection, schedule: Q04DX002 (ip), vehicle: saline with Tween-80
  T/C: 96 % of control

## [Cl][Pt]([Cl])([Cl])[Cl]
dose: 12.5 mg/kg/injection, schedule: Q01DX009 (ip), vehicle: saline
  T/C: 123 % of control
dose: 25.0 mg/kg/injection, schedule: Q01DX009 (ip), vehicle: saline
  T/C: 111 % of control

## Cc1c2oc(=O)cc(-c3ccccc3)c2cc2c(=O)ccoc12
dose: 12.5 mg/kg/injection, schedule: Q01DX005 (ip), vehicle: saline with Tween-80
  T/C: 97 % of control
dose: 25.0 mg/kg/injection, schedule: Q01DX005 (ip), vehicle: saline with Tween-80
  T/C: 92 % of control
[1]
  T/C: 97 % of control
[2]
  T/C: 86 % of control
[3]
  T/C: 86 % of control

## CCCC1(C)COC(c2ccc(OC)cc2)OC1 (stereo not given)
[4]
  T/C: 103 % of control
dose: 100.0 mg/kg/injection, schedule: Q01DX001 (ip), vehicle: saline with Tween-80
  T/C: 109 % of control
[5]
  T/C: 112 % of control
dose: 200.0 mg/kg/injection, schedule: Q01DX001 (ip), vehicle: saline with Tween-80
  T/C: 102 % of control
[6]
  T/C: 103 % of control
dose: 400.0 mg/kg/injection, schedule: Q01DX001 (ip), vehicle: saline with Tween-80
  T/C: 104 % of control

## CC[C@H]1CN2CCc3c([nH]c4ccccc34)[C@@H]2C[C@@H]1/C(=C\OC)C(=O)OC
[1]
  T/C: 108 % of control
[2]
  T/C: 108 % of control
[3]
  T/C: 108 % of control

## CCCCN1COC2CCCCC21 (stereo not given)
[7]
  T/C: 113 % of control
[8]
  T/C: 121 % of control

## O=C(O)c1ccc(O)c(C(=O)O)c1
[4]
  T/C: 94 % of control
[5]
  T/C: 94 % of control

## Cc1nn(C(N)=S)c(C)c1N=Nc1cccc(Cl)c1Cl
dose: 100.0 mg/kg/injection, schedule: Q04DX002 (ip), vehicle: Klucel (hydroxypropylcellulose) (HPC)
  T/C: 100 % of control
dose: 200.0 mg/kg/injection, schedule: Q04DX002 (ip), vehicle: Klucel (hydroxypropylcellulose) (HPC)
  T/C: 96 % of control
dose: 400.0 mg/kg/injection, schedule: Q04DX002 (ip), vehicle: Klucel (hydroxypropylcellulose) (HPC)
  T/C: 92 % of control

## CN(C)CCCOc1nc2c(c(=O)n(C)c(=O)n2C)n1C (tested in a mixture with another compound)
[9]
  T/C: 100 % of control
[10]
  T/C: 106 % of control
[11]
  T/C: 110 % of control

## COc1cccc2c1C1c3ccccc3Sc3cccc(c31)O2 (stereo not given)
[11]
  T/C: 98 % of control
[12]
  T/C: 100 % of control
[13]
  T/C: 100 % of control
[14]
  T/C: 99 % of control

## O=C(O)CC(=O)C(C(=O)O)C(CCc1ccccc1)C(C(=O)O)C(=O)CC(=O)O (stereo not given)
dose: 3.12 mg/kg/injection, schedule: Q01DX009 (ip), vehicle: saline with Tween-80
  T/C: 92 % of control
dose: 6.25 mg/kg/injection, schedule: Q01DX009 (ip), vehicle: saline with Tween-80
  T/C: 101 % of control
dose: 12.5 mg/kg/injection, schedule: Q01DX009 (ip), vehicle: saline with Tween-80
  T/C: 100 % of control
[4]
  T/C: 89 % of control and 92 % of control
[6]
  T/C: 90 % of control

## CC(C)(O)c1ccccc1S(=O)c1ccccc1 (stereo not given)
dose: 100.0 mg/kg/injection, schedule: Q01DX001 (ip), vehicle: Klucel (hydroxypropylcellulose) (HPC)
  T/C: 101 % of control
dose: 200.0 mg/kg/injection, schedule: Q01DX001 (ip), vehicle: Klucel (hydroxypropylcellulose) (HPC)
  T/C: 100 % of control
dose: 400.0 mg/kg/injection, schedule: Q01DX001 (ip), vehicle: Klucel (hydroxypropylcellulose) (HPC)
  T/C: 92 % of control

## CSc1nc(N)c(C(N)=O)s1
[15]
  T/C: 100 % of control
dose: 100.0 mg/kg/injection, schedule: Q01DX009 (ip), vehicle: Klucel (hydroxypropylcellulose) (HPC)
  T/C: 103 % of control
[16]
  T/C: 109 % of control

## [C-]#[N+]C1CCCCC1.[C-]#[N+]C1CCCCC1.[Ni].[S-]c1ccccc1.[S-]c1ccccc1
dose: 25.0 mg/kg/injection, schedule: Q04DX003 (ip), vehicle: saline with Tween-80
  T/C: 89 % of control
dose: 50.0 mg/kg/injection, schedule: Q04DX003 (ip), vehicle: saline with Tween-80
  T/C: 91 % of control
dose: 100.0 mg/kg/injection, schedule: Q04DX003 (ip), vehicle: saline with Tween-80
  T/C: 89 % of control and 93 % of control

## O=C(CC(c1ccccc1)c1ccccc1)c1ccccc1
[4]
  T/C: 86 % of control
[5]
  T/C: 90 % of control
[6]
  T/C: 88 % of control
dose: 400.0 mg/kg/injection, schedule: Q01DX009 (ip), vehicle: saline with Tween-80
  T/C: 89 % of control

## CCC(C)C[c-]1[c-][c-][c-][c-]1.CCC(C)C[c-]1[c-][c-][c-][c-]1.[Cl][Zr][Cl] (stereo not given)
[4]
  T/C: 90 % of control
[5]
  T/C: 88 % of control

## CC(C)(O)/C=C/C(=O)C(C)(O)C1C(O)CC2(C)C3CC=C4C(CC(=O)C(O)C4(C)C)C3(C)C(=O)CC12C (stereo not given)
dose: 0.5 mg/kg/injection, schedule: Q01DX009 (ip), vehicle: saline + alcohol
  T/C: 119 % of control
dose: 1.0 mg/kg/injection, schedule: Q01DX009 (ip), vehicle: saline + alcohol
  T/C: 119 % of control
dose: 2.0 mg/kg/injection, schedule: Q01DX009 (ip), vehicle: saline + alcohol
  T/C: 121 % of control and 120 % of control

## CC[C@@]1(O)C(=O)OCc2c1cc1n(c2=O)Cc2cc3c(N)cccc3nc2-1
dose: 0.12 mg/kg/injection, schedule: Q01DX005 (ip), vehicle: saline with Tween-80
  T/C: 153 % of control
dose: 0.25 mg/kg/injection, schedule: Q01DX005 (ip), vehicle: saline with Tween-80
  T/C: 153 % of control
dose: 0.5 mg/kg/injection, schedule: Q01DX005 (ip), vehicle: saline with Tween-80
  T/C: 180 % of control and 204 % of control
dose: 1.0 mg/kg/injection, schedule: Q01DX005 (ip), vehicle: saline with Tween-80
  T/C: 180 % of control

## CC1(C)N=C(N)N=C(N)N1CCCCc1ccccc1
[9]
  T/C: 110 % of control
[10]
  T/C: 114 % of control
[11]
  T/C: 118 % of control

## OCC1OC(N(O)c2ccc(Oc3c(Cl)cc(Cl)cc3Cl)cc2)C(O)C(O)C1O (stereo not given)
dose: 60.0 mg/kg/injection, schedule: Q01DX005 (ip), vehicle: Klucel (hydroxypropylcellulose) (HPC)
  T/C: 100 % of control
dose: 120.0 mg/kg/injection, schedule: Q01DX005 (ip), vehicle: Klucel (hydroxypropylcellulose) (HPC)
  T/C: 100 % of control

## O=C1Cc2ccccc2CC1CC1Cc2ccccc2CC1=O (stereo not given)
[15]
  T/C: 87 % of control
[16]
  T/C: 91 % of control

## COc1cc(NCCN(CC(C)C)C2CCCC2)c2ncccc2c1
dose: 12.5 mg/kg/injection, schedule: Q01DX005 (ip), vehicle: saline
  T/C: 100 % of control and 106 % of control
[7]
  T/C: 100 % of control and 114 % of control
[17]
  T/C: 101 % of control and 103 % of control and 106 % of control
[8]
  T/C: 121 % of control and 90 % of control and 96 % of control

## CS(=O)(=O)Nc1cccc2c1-c1ccccc1C2=O
[12]
  T/C: 96 % of control
[13]
  T/C: 101 % of control
[14]
  T/C: 88 % of control

## CCC1=C(C)CC(CC(=O)OC)C1=O (stereo not given)
[17]
  T/C: 95 % of control
[8]
  T/C: 97 % of control
dose: 200.0 mg/kg/injection, schedule: Q01DX005 (ip), vehicle: saline
  T/C: 98 % of control

## Cc1cc(N(CCOS(C)(=O)=O)CCOS(C)(=O)=O)ccc1C=O
dose: 3.12 mg/kg/injection, schedule: Q01DX009 (ip), vehicle: Klucel (hydroxypropylcellulose) (HPC)
  T/C: 150 % of control and 176 % of control
dose: 6.25 mg/kg/injection, schedule: Q01DX009 (ip), vehicle: Klucel (hydroxypropylcellulose) (HPC)
  T/C: 174 % of control and 196 % of control
dose: 12.5 mg/kg/injection, schedule: Q01DX009 (ip), vehicle: Klucel (hydroxypropylcellulose) (HPC)
  T/C: 110 % of control and 213 % of control and 217 % of control
